Experimental data taken from PubChem BioAssay (NCI).
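Test compounds were applied to cells in 96-well plates for 48 hours at 5 doses. Here, GI50 denotes the concentration required for 50% inhibition of growth. TGI is the concentration that stops growth completely.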

What was measured:
Assay in all cases: NCI tumour cell line growth inhibition, 48 h
MDA-MB-231 breast = tested on: MDA-MB-231 breast
UACC-62 melanoma = tested on: UACC-62 melanoma
MDA-MB-435 = tested on: MDA-MB-435
M14 melanoma = tested on: M14 melanoma
NCI-H226 lung = tested on: NCI-H226 lung
KM12 colon = tested on: KM12 colon
MALME-3M melanoma = tested on: MALME-3M melanoma
OVCAR-3 ovarian = tested on: OVCAR-3 ovarian
NCI-H23 lung = tested on: NCI-H23 lung
OVCAR-8 ovarian = tested on: OVCAR-8 ovarian
SF-539 CNS = tested on: SF-539 CNS
BT-549 breast = tested on: BT-549 breast
HT29 colon = tested on: HT29 colon
CCRF-CEM leukemia = tested on: CCRF-CEM leukemia
ACHN renal = tested on: ACHN renal
DU-145 prostate = tested on: DU-145 prostate
UACC-257 melanoma = tested on: UACC-257 melanoma
T-47D breast = tested on: T-47D breast
SNB-19 CNS = tested on: SNB-19 CNS
NCI-H522 lung = tested on: NCI-H522 lung
SN12C renal = tested on: SN12C renal
RPMI-8226 leukemia = tested on: RPMI-8226 leukemia
SR leukemia = tested on: SR leukemia
OVCAR-4 ovarian = tested on: OVCAR-4 ovarian
SK-MEL-2 melanoma = tested on: SK-MEL-2 melanoma
A498 renal = tested on: A498 renal
TK-10 renal = tested on: TK-10 renal
A549 NSCLC = tested on: A549 NSCLC
HOP-62 NSCLC = tested on: HOP-62 NSCLC
COLO 205 colon = tested on: COLO 205 colon
PC-3 prostate = tested on: PC-3 prostate
EKVX NSCLC = tested on: EKVX NSCLC
HCT-15 colon = tested on: HCT-15 colon
NCI/ADR-RES ovarian = tested on: NCI/ADR-RES ovarian
SK-MEL-28 melanoma = tested on: SK-MEL-28 melanoma
HOP-92 NSCLC = tested on: HOP-92 NSCLC
HCC-2998 colon = tested on: HCC-2998 colon
HCT-116 colon = tested on: HCT-116 colon
CAKI-1 renal = tested on: CAKI-1 renal
MOLT-4 leukemia = tested on: MOLT-4 leukemia
SW-620 colon = tested on: SW-620 colon
NCI-H460 lung = tested on: NCI-H460 lung
786-0 renal = tested on: 786-0 renal
SK-OV-3 ovarian = tested on: SK-OV-3 ovarian
OVCAR-5 ovarian = tested on: OVCAR-5 ovarian
HS 578T breast = tested on: HS 578T breast
SNB-75 CNS = tested on: SNB-75 CNS
SK-MEL-5 melanoma = tested on: SK-MEL-5 melanoma
LOX IMVI melanoma = tested on: LOX IMVI melanoma
MCF7 breast = tested on: MCF7 breast
HL-60(TB) leukemia = tested on: HL-60(TB) leukemia
SF-295 CNS = tested on: SF-295 CNS
U251 CNS = tested on: U251 CNS
UO-31 renal = tested on: UO-31 renal
SF-268 CNS = tested on: SF-268 CNS

COc1cc2c(cc1OCCCN1CCN(CCCn3c4ccccc4c4ccccc43)CC1)N=C[C@@H]1CCCN1C2=O gave a GI50 (MDA-MB-231 breast) of 217 nM, a TGI (MDA-MB-231 breast) of 1020 nM and a GI50 (UACC-62 melanoma) of 162 nM. The TGI (UACC-62 melanoma) was 347 nM, the GI50 (MDA-MB-435) was 55.3 nM and the TGI (MDA-MB-435) was 121 nM. It also gave a GI50 (M14 melanoma) of 211 nM, a TGI (M14 melanoma) of 656 nM and a GI50 (NCI-H226 lung) of 323 nM. It also gave a TGI (NCI-H226 lung) of 1480 nM, a GI50 (KM12 colon) of 157 nM and a TGI (KM12 colon) of 578 nM. For the same compound, the GI50 (MALME-3M melanoma) was 102 nM, the TGI (MALME-3M melanoma) was 432 nM and the GI50 (OVCAR-3 ovarian) was 66.9 nM. It also gave a TGI (OVCAR-3 ovarian) of 1160 nM, a GI50 (NCI-H23 lung) of 122 nM and a TGI (NCI-H23 lung) of 599 nM. It also gave a GI50 (OVCAR-8 ovarian) of 273 nM, a TGI (OVCAR-8 ovarian) of 1550 nM and a GI50 (SF-539 CNS) of 225 nM. For the same compound, the TGI (SF-539 CNS) was 490 nM, the GI50 (BT-549 breast) was 58.7 nM and the TGI (BT-549 breast) was 288 nM. It also gave a GI50 (HT29 colon) of 34.2 nM, a TGI (HT29 colon) of 289 nM and a GI50 (CCRF-CEM leukemia) of 21.8 nM. It also gave a TGI (CCRF-CEM leukemia) of 118 nM, a GI50 (ACHN renal) of 430 nM and a TGI (ACHN renal) of 1270 nM. The GI50 (DU-145 prostate) was 33.5 nM, the TGI (DU-145 prostate) was 1140 nM and the GI50 (UACC-257 melanoma) was 209 nM. For the same compound, the TGI (UACC-257 melanoma) was 461 nM, the GI50 (T-47D breast) was 206 nM and the TGI (T-47D breast) was 868 nM. The GI50 (SNB-19 CNS) was 274 nM, the TGI (SNB-19 CNS) was 1170 nM and the TGI (NCI-H522 lung) was 182 nM. It also gave a GI50 (SN12C renal) of 243 nM, a TGI (SN12C renal) of 1510 nM and a GI50 (RPMI-8226 leukemia) of 10.6 nM. For the same compound, the TGI (RPMI-8226 leukemia) was 48.3 nM, the GI50 (SR leukemia) was 20.6 nM and the TGI (SR leukemia) was 12.4 µM. It also gave a GI50 (OVCAR-4 ovarian) of 37.4 nM, a TGI (OVCAR-4 ovarian) of 357 nM and a GI50 (SK-MEL-2 melanoma) of 159 nM. The TGI (SK-MEL-2 melanoma) was 539 nM, the GI50 (A498 renal) was 158 nM and the TGI (A498 renal) was 350 nM. For the same compound, the GI50 (TK-10 renal) was 86 nM, the TGI (TK-10 renal) was 1070 nM and the GI50 (A549 NSCLC) was 294 nM. The TGI (A549 NSCLC) was 1280 nM, the GI50 (HOP-62 NSCLC) was 242 nM and the TGI (HOP-62 NSCLC) was 2460 nM. It also gave a GI50 (COLO 205 colon) of 74.9 nM, a TGI (COLO 205 colon) of 235 nM and a GI50 (PC-3 prostate) of 58.5 nM. It also gave a TGI (PC-3 prostate) of 523 nM, a GI50 (EKVX NSCLC) of 268 nM and a TGI (EKVX NSCLC) of 988 nM. For the same compound, the GI50 (HCT-15 colon) was 623 nM, the TGI (HCT-15 colon) was 2150 nM and the GI50 (NCI/ADR-RES ovarian) was 1370 nM. The TGI (NCI/ADR-RES ovarian) was 4.93 µM, the GI50 (SK-MEL-28 melanoma) was 51.6 nM and the TGI (SK-MEL-28 melanoma) was 151 nM. It also gave a GI50 (HOP-92 NSCLC) of 28.3 nM, a TGI (HOP-92 NSCLC) of 173 nM and a GI50 (HCC-2998 colon) of 120 nM. It also gave a TGI (HCC-2998 colon) of 370 nM, a GI50 (HCT-116 colon) of 156 nM and a TGI (HCT-116 colon) of 3.93 µM. The GI50 (CAKI-1 renal) was 148 nM, the TGI (CAKI-1 renal) was 1170 nM and the GI50 (MOLT-4 leukemia) was 44 nM. For the same compound, the TGI (MOLT-4 leukemia) was 257 nM, the GI50 (SW-620 colon) was 25.4 nM and the TGI (SW-620 colon) was 141 nM. It also gave a GI50 (NCI-H460 lung) of 230 nM, a TGI (NCI-H460 lung) of 916 nM and a GI50 (786-0 renal) of 280 nM. It also gave a TGI (786-0 renal) of 1010 nM, a GI50 (SK-OV-3 ovarian) of 320 nM and a TGI (SK-OV-3 ovarian) of 1270 nM. The GI50 (OVCAR-5 ovarian) was 62.5 nM, the TGI (OVCAR-5 ovarian) was 648 nM and the TGI (HS 578T breast) was 254 nM. For the same compound, the GI50 (SNB-75 CNS) was under 39.5 nM, the TGI (SNB-75 CNS) was 102 nM and the GI50 (SK-MEL-5 melanoma) was 202 nM. The TGI (SK-MEL-5 melanoma) was 472 nM, the GI50 (LOX IMVI melanoma) was 93.7 nM and the TGI (LOX IMVI melanoma) was 426 nM. The GI50 (MCF7 breast) was 28.5 nM, the TGI (MCF7 breast) was 461 nM and the GI50 (HL-60(TB) leukemia) was 24.9 nM. The GI50 (SF-295 CNS) was under 35.9 nM, the TGI (SF-295 CNS) was 235 nM and the GI50 (U251 CNS) was 98.5 nM. For the same compound, the TGI (U251 CNS) was 1200 nM, the GI50 (UO-31 renal) was 174 nM and the TGI (UO-31 renal) was 491 nM. For the same compound, the GI50 (SF-268 CNS) was 36.2 nM and the TGI (SF-268 CNS) was 289 nM.
